The source of these data is PubChem BioAssay AID1645868 (Buhrlage Lab, Dana-Farber Cancer Institute and Novartis …, 2021).

Active and inactive are the calls of the source.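 The calls were made as follows: active = maximal percent inhibition of the deubiquitinase OTUD3 of at least 30% across the tested doses; inactive = the rest.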

For this experiment, the target named is OTU domain-containing protein 3 (Homo sapiens) (UniProt Q5T2D3). The experiment is described as follows: Validation of screening hits, potency titration, in vitro enzymatic, OTU domain-containing protein 3 DUB inhibitors (AID 1645868). To be noted: purified OTUD3, ubiquitin-rhodamine cleavage fluorescence, 2 h.
Sequence of OTU domain-containing protein 3 (Homo sapiens) (Q5T2D3 whole entry, looked up, the tested form may be a part): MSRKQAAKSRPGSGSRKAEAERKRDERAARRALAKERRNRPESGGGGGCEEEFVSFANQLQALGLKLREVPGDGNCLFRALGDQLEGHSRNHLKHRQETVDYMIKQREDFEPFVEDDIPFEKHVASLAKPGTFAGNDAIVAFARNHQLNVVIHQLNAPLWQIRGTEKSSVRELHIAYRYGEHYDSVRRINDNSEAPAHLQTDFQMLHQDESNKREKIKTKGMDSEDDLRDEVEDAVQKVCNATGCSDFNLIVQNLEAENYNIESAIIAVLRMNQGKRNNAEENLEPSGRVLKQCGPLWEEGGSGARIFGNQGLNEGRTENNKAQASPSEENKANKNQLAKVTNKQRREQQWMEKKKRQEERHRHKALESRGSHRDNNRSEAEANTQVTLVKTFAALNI
With `O=C(Cc1c[nH]c2ccccc12)Nc1nc2ccccc2s1`, the IC50 is > 50 µM (inactive).
The result for `Cc1ccc2c(=O)c3c([nH]c2c1C)CCN(CC(=O)NCc1ccc2c(c1)OCO2)C3` reads > 50 µM (inactive).
Consider `Nc1c(-c2ccc(Cl)cc2)cnc2cc(-c3ccc(Cl)c(Cl)c3)nn12`, for which the IC50 was 16.1 µM.
The result for `COc1ccc(C(=O)Nc2ccccc2C(=O)NCc2ccccc2)cc1` reads > 50 µM (inactive); that for `Cc1cccc(C(=O)N2CCc3cc(-c4nc(NC(=O)CN5CCc6ccccc6C5)sc4C)ccc32)c1`, > 50 µM (inactive).
The result for `CC(=O)Nc1cc(-c2cccc(O)c2)cn2c(-c3cnn(C)c3)cnc12` reads > 50 µM (inactive); that for `O=C(NCCc1ccccn1)c1cn2ccnc(-c3ccc(F)cc3)c2n1`, > 50 µM (inactive); that for `Cc1ccc2c(c1)N(Cc1nc(-c3ccc(F)cc3)no1)C(=O)CO2`, > 50 µM (inactive).
The result for `O=C(CCc1c[nH]c2ccccc12)Nc1ccc(N2CCOCC2)cc1` reads 30.9 µM; that for `O=C(Nc1ccncc1)c1ncoc1-c1cccc(Cl)c1`, > 50 µM (inactive).
As to `COCCNC(=O)c1ccn(-c2ccc3ccc(-c4ccncc4)cn23)n1`, the IC50 was > 50 µM (inactive).
The result for `COc1cccc(NC(=O)c2ccc(-c3csc(C)n3)cc2)c1` reads > 50 µM (inactive).
In the case of `Cc1ccc2c(c1)c(=O)c(C(=O)c1ccccc1)cn2CC(=O)Nc1ccc2c(c1)OCCO2`, the IC50 was 14.2 µM.
As for `CC(Nc1ncnc2c1sc1nc(N3CCOCC3)c3c(c12)CCC3)c1ccccc1` (centres undefined), the IC50 is > 50 µM (inactive).
The result for `O=S(c1ccc2ccccc2c1)c1cnns1` (centres undefined) reads > 50 µM (inactive).
The result for `Cc1ccc(C2c3cccn3CCN2C(=O)Nc2ccccc2)cc1` (centres undefined) reads > 50 µM (inactive); that for `O=C(Cc1nnc2c(-c3nc(C4CC4)no3)cccn12)Nc1ccccc1`, 22.8 µM; that for `O=C1C=C(O)c2c(O)cccc2C1=O`, 25.5 µM.
As for `CCc1cc2cc3c(cc2nc1SCC(=O)Nc1cccc(C(C)=O)c1)OCO3`, the IC50 was 26.5 µM.
The result for `O=C(Nc1ccc(F)cc1F)c1csc(-c2ccccc2)n1` reads 34.7 µM; that for `O=C(/C=C/c1ccco1)c1cccc([N+](=O)[O-])c1`, 23.2 µM; that for `CCOc1cccc2sc(N(Cc3cccnc3)C(=O)CCc3ccccc3)nc12`, > 50 µM (inactive).
The result for `Cc1cc(-n2c(C)cc(-c3csc(N)n3)c2C)no1` reads > 50 µM (inactive); that for `O=C(COc1cccc2ccc(N3CCC(Cc4ccccc4)CC3)nc12)NCc1ccc(F)cc1`, 30.5 µM; that for `O=C(Nc1ccc2c(c1)OCCO2)c1ccc(N2CCCCC2)nn1`, > 50 µM (inactive).
The result for `CCCC1Cc2c(sc3nc(SCC)nc(N)c23)CO1` (centres undefined) reads 26.9 µM; that for `COC1=CC(=O)c2c(O)c(C)c(CC(C)=O)c(O)c2C1=O`, > 50 µM (inactive).
Consider `Cc1ccc(C)c(NS(=O)(=O)c2cc(-c3cnc(C4CC4)o3)ccc2C)c1`, for which the IC50 is > 50 µM (inactive).
The result for `CCc1ccc2[nH]c(=O)c(CN(CCc3ccc(OC)c(OC)c3)C(=O)Nc3ccccc3)cc2c1` reads > 50 µM (inactive).
The result for `CCc1c(Cl)c(O)c(Cl)c(O)c1C(=O)O[C@H]1C(C)O[C@@H](OC/C2=C\C=C\CC(O)/C(C)=C/C(CC)C(O[C@@H]3OC(C)(C)[C@H](O)C(OC(=O)C(C)C)[C@@H]3O)/C(C)=C/C(C)=C/CC(C(C)O)OC2=O)[C@@H](OC)C1O` (some centres undefined) reads > 50 µM (inactive); that for `Cc1nnc(Sc2cc(C(=O)NCCN3CCCC3)c3ccccc3n2)s1`, > 50 µM (inactive).
Turning to `COc1ccccc1CNC(=O)CCCn1c(=O)c2ccccc2n(CC(=O)N2CCN(c3ccccc3)CC2)c1=O`, the half-inhibitory concentration (IC50) was 25.5 µM.
For `COC(=O)c1sc2ccccc2c1NC(=O)c1ccc(Br)s1`, the IC50 is 21.2 µM.
The result for `CC1CCN(c2nnc(-c3nc(C4CC4)no3)c3ccccc23)CC1` reads > 50 µM (inactive); that for `Cn1c(=O)sc2cc(NC(=O)c3ccc(Br)cc3)ccc21`, 15.2 µM; that for `CC(C)c1ccc(C(C(=O)NC2CCCCC2)N(C(=O)c2cnccn2)c2cccc(F)c2)cc1` (centres undefined), 47.6 µM.
As for `Cc1ccc(-n2nnc(C(=O)NC3CCCCC3)c2N)cc1`, the IC50 was > 50 µM (inactive).
The result for `CN1CCC(N(C)S(=O)(=O)c2ccc(NC(=O)c3cccc(OCc4ccccc4)c3)cc2)CC1` reads > 50 µM (inactive).
As for `Cc1cc(=O)n(CC(=O)Nc2ccccc2C)c(Nc2ccc(F)cc2)n1`, the half-maximal inhibitory concentration (IC50) was 23.3 µM.
The result for `COc1ccc(C2C(C(=O)Nc3ccccc3OC)=C(C)Nc3nnnn32)cc1Br` (centres undefined) reads > 50 µM (inactive); that for `O=C(Nc1ccc(N2CCOCC2)cc1)c1ccc(-c2ccc(N3CCCC3)nn2)cc1`, > 50 µM (inactive); that for `Cc1cc(C2CC(=O)Nc3c2c(C)nn3-c2nc3ccccc3[nH]2)c(C)s1` (centres undefined), > 50 µM (inactive).
The result for `Cc1c(-c2nsc(NC(=O)c3ccc(Cl)cc3)n2)nnn1-c1ccccc1F` reads 18.9 µM; that for `COC1=C(C2=C(OC)C(=O)c3cc4c(c(O)c3C2=O)C(=O)OC(C)C4)C(=O)c2c(cc3c(c2O)C(=O)OC(C)C3)C1=O` (centres undefined), 3.28 µM.
The result for `COc1ccc(C)cc1NC(=O)C1CC(=O)Nc2nc(SCc3ccccc3)nn21` (centres undefined) reads 16.9 µM.
`CCn1cnc2ccc(C(=O)NC3CC3)cc2c1=O`: the IC50 was > 50 µM (inactive).
The result for `O=C(CSc1ccc2nnc(-c3ccccc3)n2n1)N1CCCc2ccccc21` reads 15 µM; that for `COC(=O)C1C(c2ccc(OC)cc2)C2(C(=O)c3ccccc3C2=O)C2C=Cc3ccccc3N12` (centres undefined), > 50 µM (inactive).
In the case of `CC(C)Cc1nc2oc3c(N(C)CCO)ncnc3c2c2c1CCC2`, the IC50 is > 50 µM (inactive).
The result for `Nc1c(C(=O)NCc2ccc3c(c2)OCO3)nnn1Cc1ccc(Br)cc1F` reads 19.7 µM; that for `COc1ccc(-n2ccn3c(CCC(=O)NCc4ccc(F)cc4)nnc3c2=O)cc1`, 33.3 µM; that for `O=C(Nc1cccc(Br)c1)c1cc(-c2cccnc2)n[nH]1`, 10.4 µM.
The result for `O=C(c1cccnc1)N1CCC2(CC1)CC1(CO2)Nc2ccccc2-n2cccc21` (centres undefined) reads > 50 µM (inactive).
For `Cc1cc(C)c2nc3c(cc2c1)CN(Cc1ccco1)C(=O)O3`, the IC50 is > 50 µM (inactive).
With `Cc1cc(O)c(=O)cc2c1C[C@H]1CC(C)(C)/C=C/C[C@@]3(C)Oc4cc(=O)c(O)cc(C)c4C[C@@H]3C[C@H](O)[C@]1(C)O2`, the IC50 is > 50 µM (inactive).
The result for `Cc1cc(N2CCOCC2)nc2ccc(NC(=O)CCC(=O)Nc3ccc(F)cc3)cc12` reads > 50 µM (inactive); that for `Cc1ccc(NC(=O)c2cc(=O)n(C)c3c2c(=O)n(C)c(=O)n3C)c(C)c1`, > 50 µM (inactive).
The result for `CC(C)(C)C(=O)C1C2C(=O)N(Cc3ccccc3)C(=O)C2C2c3ccccc3C=CN12` (centres undefined) reads > 50 µM (inactive); that for `O=C(Cn1c(=O)c2sccc2n(Cc2ccc([N+](=O)[O-])cc2)c1=O)NCCc1ccccc1`, 22.4 µM; that for `Cc1cc(O)c2c3c(c(O)cc2c1)C(=O)c1c(O)cccc1C3=O`, 4.84 µM.
The result for `CCOC(=O)c1sc2nc(CC(=O)OC)nc(NCc3ccco3)c2c1C` reads > 50 µM (inactive); that for `O=C(/C=C/c1ccc(F)cc1)N1CCC(Cc2ccccc2)CC1`, 49.9 µM.
Regarding `Cc1ccc2nc(CCc3ccc(NS(=O)(=O)c4cccc(Cl)c4C)cc3)[nH]c2c1`, the IC50 is > 50 µM (inactive).
The result for `C=C1CCC2[C@](C)(CCC[C@]2(C)C(=O)OC)[C@H]1CCc1ccoc1CNC(C)C` (some centres undefined) reads > 50 µM (inactive); that for `COc1cc(OC)cc(C(=O)Nc2cnc(-c3ccccc3)nc2)c1`, > 50 µM (inactive).
The result for `COCC(=O)Nc1cc(F)c2nc(N3CCOCC3)ccc2c1` reads > 50 µM (inactive); that for `O=C(Nc1ccc(F)cc1F)NC1CCN(c2ccccc2)C1=O` (centres undefined), 32.9 µM.
For the compound `Cc1ccc(CN2CCCn3nc(C(=O)NCc4ccc(F)cc4)cc3C2=O)cc1`, the IC50 is > 50 µM (inactive).
The result for `Cc1ccc(C)c(S(=O)(=O)N2CCN(c3ccc4nnc(-c5ccco5)n4n3)CC2)c1` reads > 50 µM (inactive).
Take `O=C(NCC1CC1)C1CCCN(c2ccc(-c3ccccc3)nn2)C1` (centres undefined): the IC50 was > 50 µM (inactive).
The result for `CCc1ccc2c(c1)[C@]1(C(=O)N2)[C@@H]2C(=O)N(c3ccc(Cl)cc3Cl)C(=O)[C@@H]2[C@@H]2CCCN21` reads > 50 µM (inactive); that for `COCCCN1CCS(=O)(=O)c2c(Cl)c(F)nc(Oc3ccc(C#N)cc3)c21`, > 50 µM (inactive).
The result for `c1cncc(-c2nc(Nc3ccc4c(c3)OCCO4)c3ccccc3n2)c1` reads > 50 µM (inactive); that for `Cc1ccc2nc(CNc3ccc(F)cc3C)cc(=O)n2c1`, > 50 µM (inactive).
The result for `COc1ccc(-n2nnc(C(=O)Nc3ccccc3)c2N)cc1` reads > 50 µM (inactive); that for `O=C(Nc1ccccc1Br)c1ccn(COc2ccccc2F)n1`, 46.7 µM; that for `C/C=C1/C2=CCCN3C(=O)O[C@H]([C@H]1O)[C@H]23`, > 50 µM (inactive).
With `O=[N+]([O-])c1ccc2c(c1)nc1n2CCN(Cc2ccco2)C1`, the IC50 is > 50 µM (inactive).
The result for `CCc1nc2cc(NC(=O)c3cccc(N4CCCC4=O)c3)ccc2n1C` reads > 50 µM (inactive); that for `Cc1ccc2c(c1)c(=O)c(C(=O)c1ccccc1)cn2CC(=O)Nc1ccccc1`, 31.5 µM; that for `COCCn1ccc2nc(C)c(C(=O)Nc3ccc4c(c3)OCCO4)cc2c1=O`, > 50 µM (inactive).
The result for `Cc1cccc(NC(=O)CN2C(=O)COc3cc(S(=O)(=O)N4CCCC4)ccc32)c1C` reads 20.9 µM.
The result for `CCCc1cc(=O)oc2cc(OCC(=O)NCc3ccc(OC)cc3)ccc12` reads 36.2 µM; that for `CC(=O)c1cc2c(=O)c3c(C(=O)O)c(O)c(O)cc3oc2c(C(C)=O)c1-c1coc2cc(O)c(O)c(C(=O)O)c2c1=O`, 0.369 µM.
